Measured values taken from patent publication US20250186408A1, “TREATMENT OF PHARMACORESISTANT EPILEPSY” (Katholieke Universiteit Leuven, priority 2021, published 2025).
Where two headings read alike, the source gives them in different places.

Columns and labels:
[1] = target: T1, KvLQT1/minK (Homo sapiens, UniProt P51787); test: Ion Channel KvLQT1/minK Blocker; type: cell-based; conditions: for Emax: read-out: Max response
[2] = target: T2, INSR (Homo sapiens, UniProt P06213); test: Binding (KINOMEscan) INSR Inhibitor; conditions: for IC50: read-out: RC50, result type IC50; for Emax: read-out: Max response
T2 construct: purchased Eurofins DiscoverX Corporation 87-1003DR; host or cells: E. coli BL21-derived host (T7 phage) or HEK-293
T2 sequence (P06213 28-1382): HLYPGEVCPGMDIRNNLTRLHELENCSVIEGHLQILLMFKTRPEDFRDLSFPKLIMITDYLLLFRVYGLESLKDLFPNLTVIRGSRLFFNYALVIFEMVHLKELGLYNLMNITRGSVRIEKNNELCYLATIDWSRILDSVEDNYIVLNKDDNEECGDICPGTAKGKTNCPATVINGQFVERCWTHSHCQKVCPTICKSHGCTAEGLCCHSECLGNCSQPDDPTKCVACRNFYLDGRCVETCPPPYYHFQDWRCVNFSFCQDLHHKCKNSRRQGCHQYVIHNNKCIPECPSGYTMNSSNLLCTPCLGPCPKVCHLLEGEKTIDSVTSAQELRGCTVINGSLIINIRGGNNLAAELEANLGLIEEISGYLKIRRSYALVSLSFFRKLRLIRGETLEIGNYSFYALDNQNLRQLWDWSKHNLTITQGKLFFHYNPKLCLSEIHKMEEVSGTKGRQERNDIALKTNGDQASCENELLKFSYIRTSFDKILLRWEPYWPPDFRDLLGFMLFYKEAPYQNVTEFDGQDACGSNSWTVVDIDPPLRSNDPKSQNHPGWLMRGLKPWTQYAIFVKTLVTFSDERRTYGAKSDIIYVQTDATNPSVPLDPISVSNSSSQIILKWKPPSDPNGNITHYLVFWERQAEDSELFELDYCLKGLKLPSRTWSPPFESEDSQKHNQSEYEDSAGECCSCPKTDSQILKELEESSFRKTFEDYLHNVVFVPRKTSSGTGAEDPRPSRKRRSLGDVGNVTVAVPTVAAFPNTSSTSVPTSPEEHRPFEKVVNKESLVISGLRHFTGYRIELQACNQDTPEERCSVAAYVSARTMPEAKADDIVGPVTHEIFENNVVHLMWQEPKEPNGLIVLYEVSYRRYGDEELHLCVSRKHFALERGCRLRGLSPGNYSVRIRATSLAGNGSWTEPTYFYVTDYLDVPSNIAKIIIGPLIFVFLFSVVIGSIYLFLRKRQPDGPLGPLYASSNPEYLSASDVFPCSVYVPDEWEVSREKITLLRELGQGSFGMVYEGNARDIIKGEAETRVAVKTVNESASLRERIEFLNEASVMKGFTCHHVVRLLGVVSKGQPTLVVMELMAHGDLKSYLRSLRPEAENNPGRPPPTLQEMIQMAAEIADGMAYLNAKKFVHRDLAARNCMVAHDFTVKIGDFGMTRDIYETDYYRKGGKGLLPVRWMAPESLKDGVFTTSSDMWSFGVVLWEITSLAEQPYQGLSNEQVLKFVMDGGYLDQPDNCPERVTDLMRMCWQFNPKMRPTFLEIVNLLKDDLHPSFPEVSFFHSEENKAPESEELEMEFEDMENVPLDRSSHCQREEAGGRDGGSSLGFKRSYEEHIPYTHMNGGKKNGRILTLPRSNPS
Method: For most assays, kinase-tagged T7 phage strains were grown in parallel in 24-well blocks in an E. coli host derived from the BL21 strain. E. coli were grown to log-phase and infected with T7 phage from a frozen stock (multiplicity of infection=0.4) and incubated with shaking at 32° C. until lysis (90-150 min). The lysates were centrifuged (6,000×g) and filtered (0.2 μm) to remove cell debris. The remaining kinases were produced in HEK-293 cells and subsequently tagged with DNA for qPCR detection. Streptavidin-coated magnetic beads were treated with biotinylated small molecule ligands for 30 min at RT to generate affinity resins for kinase assays. The liganded beads were blocked with excess biotin and washed with blocking buffer (SeaBlock (Pierce), 1% BSA, 0.05% Tween 20, 1 mM DTT) to remove unbound ligand and to reduce non-specific phage binding. […] All reactions were performed in polypropylene 384-well plates in a final volume of 0.02 mL. […] The beads were then re-suspended in elution buffer (1×PBS, 0.05% Tween 20, 0.5 μM non-biotinylated affinity ligand) and incubated at RT with shaking for 30 min. The kinase concentration in the eluates was measured by qPCR.
The kinase concentration in the eluates was measured by qPCR. qPCR reactions were assembled by adding 2.5 μL of kinase eluate to 7.5 μL of qPCR master mix containing 0.15 μM amplicon primers and 0.15 μM amplicon probe. The qPCR protocol consisted of a 10 min hot start at 95° C., followed by 35 cycles of 95° C. for 15 sec, 60° C. for 1 min.
Binding constants (Kds) were calculated with a standard dose-response curve using the Hill equation: […]

[3] = target: T3, CCKAR (Homo sapiens, UniProt P32238); test: Calcium Flux CCKAR Agonist; type: cell-based; conditions: for EC50: read-out: RC50, result type EC50; for Emax: read-out: Max response
T3 sequence (P32238 1-428): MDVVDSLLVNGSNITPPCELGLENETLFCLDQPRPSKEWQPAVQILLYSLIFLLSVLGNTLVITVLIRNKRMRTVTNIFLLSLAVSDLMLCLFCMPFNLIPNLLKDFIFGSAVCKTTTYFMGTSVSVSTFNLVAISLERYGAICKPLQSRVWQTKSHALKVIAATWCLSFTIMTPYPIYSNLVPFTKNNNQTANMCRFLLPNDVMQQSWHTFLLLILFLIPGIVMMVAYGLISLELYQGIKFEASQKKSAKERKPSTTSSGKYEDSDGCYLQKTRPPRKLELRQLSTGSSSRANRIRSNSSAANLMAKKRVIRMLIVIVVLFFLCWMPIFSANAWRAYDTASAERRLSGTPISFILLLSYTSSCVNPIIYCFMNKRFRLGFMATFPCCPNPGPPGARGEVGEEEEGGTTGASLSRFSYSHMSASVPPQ
Method: (≤0.2% DMSO concentration). Assays were performed in 1× dye loading buffer consisting of 1× Dye (DiscoverX, Calcium No Wash^PLUS kit, Catalog No. 90-0091), 1× Additive A and 2.5 mM Probenecid in HBSS/20 mM HEPES. Probenecid was prepared fresh. Prior to testing, media was aspirated from cells and replaced with 25 μL dye loading buffer. Cells were incubated for 45 min at 37° C. and then 20 min at RT. For agonist determination, 25 μL of 2× compound in HBSS/20 mM HEPES was added using a FLIPR Tetra (MDS). […] 25 μL of 2× sample was added and cells were incubated for 30 min at RT in the dark to equilibrate plate temperature. After incubation, antagonist determination was initiated by addition of 25 μL of 1× compound with 3×EC80 agonist using FLIPR. For both agonist and antagonist formats, activity was measure on a FLIPR Tetra (MDS). Calcium mobilization was monitored for 2 min with a 5 sec baseline read.
FLIPR read—Area under the curve, was calculated for the entire 2 min read.

[4] = target: T4, HTR3A (Homo sapiens, UniProt P46098); test: Ion Channel HTR3A Opener; type: cell-based; conditions: for Emax: Ion Channel HTR3A Opener, read-out: Max response
T4 sequence (P46098 24-478): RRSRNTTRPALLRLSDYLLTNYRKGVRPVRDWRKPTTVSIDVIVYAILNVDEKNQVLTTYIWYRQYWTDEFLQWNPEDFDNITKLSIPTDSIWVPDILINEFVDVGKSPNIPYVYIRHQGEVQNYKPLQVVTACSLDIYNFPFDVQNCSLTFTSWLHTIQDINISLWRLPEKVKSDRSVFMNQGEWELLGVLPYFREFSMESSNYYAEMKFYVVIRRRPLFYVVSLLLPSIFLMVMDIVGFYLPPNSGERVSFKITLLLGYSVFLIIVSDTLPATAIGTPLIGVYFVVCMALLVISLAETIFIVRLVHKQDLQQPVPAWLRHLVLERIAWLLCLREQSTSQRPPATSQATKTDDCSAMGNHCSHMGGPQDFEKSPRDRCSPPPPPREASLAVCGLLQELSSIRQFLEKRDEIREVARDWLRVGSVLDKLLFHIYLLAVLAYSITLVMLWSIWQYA

[5] = target: nAChR (a4/b2) (Homo sapiens, UniProt P17787+P43681); test: Ion Channel nAChR (a4/b2) Blocker; type: cell-based; conditions: for Emax: Ion Channel nAChR (a4/b2) Blocker, read-out: Max response
Chain of nAChR (a4/b2) (P43681 29-627 limits assumed): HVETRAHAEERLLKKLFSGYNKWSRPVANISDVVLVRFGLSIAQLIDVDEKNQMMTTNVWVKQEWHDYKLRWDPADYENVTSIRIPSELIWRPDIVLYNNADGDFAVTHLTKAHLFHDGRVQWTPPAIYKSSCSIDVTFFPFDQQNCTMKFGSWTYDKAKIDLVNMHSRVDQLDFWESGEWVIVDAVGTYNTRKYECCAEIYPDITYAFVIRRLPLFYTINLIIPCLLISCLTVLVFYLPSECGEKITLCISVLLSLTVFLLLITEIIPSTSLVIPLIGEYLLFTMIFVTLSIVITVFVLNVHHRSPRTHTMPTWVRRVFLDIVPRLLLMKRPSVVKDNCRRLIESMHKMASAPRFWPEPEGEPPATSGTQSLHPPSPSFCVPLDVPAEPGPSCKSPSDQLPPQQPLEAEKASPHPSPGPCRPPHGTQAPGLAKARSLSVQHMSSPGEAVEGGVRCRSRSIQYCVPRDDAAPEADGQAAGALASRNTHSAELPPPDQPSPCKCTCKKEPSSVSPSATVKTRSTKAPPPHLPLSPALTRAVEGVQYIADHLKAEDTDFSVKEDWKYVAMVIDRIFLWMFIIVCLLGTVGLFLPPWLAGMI
Chain of nAChR (a4/b2) (P17787 26-502): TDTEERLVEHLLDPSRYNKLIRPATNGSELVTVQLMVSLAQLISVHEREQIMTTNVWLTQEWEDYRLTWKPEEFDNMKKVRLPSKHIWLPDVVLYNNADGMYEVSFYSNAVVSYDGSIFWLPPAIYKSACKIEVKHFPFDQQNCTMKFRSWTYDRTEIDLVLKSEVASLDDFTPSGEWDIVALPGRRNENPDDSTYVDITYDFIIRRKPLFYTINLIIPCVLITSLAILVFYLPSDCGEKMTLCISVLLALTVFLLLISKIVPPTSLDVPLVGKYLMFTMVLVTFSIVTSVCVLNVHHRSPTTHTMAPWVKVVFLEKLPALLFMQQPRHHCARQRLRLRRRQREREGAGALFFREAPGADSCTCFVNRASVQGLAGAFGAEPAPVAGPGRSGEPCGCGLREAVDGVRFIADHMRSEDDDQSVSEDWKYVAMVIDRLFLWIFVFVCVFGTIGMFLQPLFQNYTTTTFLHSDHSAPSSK

[6] = target: CNR1 (Homo sapiens, UniProt P21554); test: cAMP CNR1 Agonist; conditions: for Emax: read-out: Max response
Chain of CNR1 (P21554 whole entry): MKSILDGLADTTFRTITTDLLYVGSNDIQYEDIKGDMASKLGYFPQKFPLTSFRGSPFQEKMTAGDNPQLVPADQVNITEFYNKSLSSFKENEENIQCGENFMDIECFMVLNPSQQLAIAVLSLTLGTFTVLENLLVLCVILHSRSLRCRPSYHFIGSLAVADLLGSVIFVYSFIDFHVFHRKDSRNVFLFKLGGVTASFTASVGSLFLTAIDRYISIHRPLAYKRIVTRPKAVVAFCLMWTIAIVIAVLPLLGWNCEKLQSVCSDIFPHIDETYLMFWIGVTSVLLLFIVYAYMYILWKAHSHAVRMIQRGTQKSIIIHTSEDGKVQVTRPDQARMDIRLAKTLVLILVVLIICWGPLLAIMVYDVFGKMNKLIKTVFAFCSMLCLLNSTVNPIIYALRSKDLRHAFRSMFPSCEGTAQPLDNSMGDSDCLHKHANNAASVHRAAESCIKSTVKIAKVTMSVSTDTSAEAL
Method: (§1) In vitro pharmacological profiling of compounds was done against 78 functional assays for 47 common off-targets (30) by Eurofins DiscoverX Corporation (Fremont, CA, USA) using their SAFETYscan E/IC50 ELECT service (Cat Ref 87-1003DR, Safety47 Panel Dose Response). […] Compounds were tested in a range of 10 concentrations, following a 3-fold serial dilution, starting from 10 μM. The assays were performed utilizing the PathHunter enzyme fragment complementation (EFC) technology, FLIPR®-based cellular screening assays, and KINOMEscan kinase binding assays.
(§2) cAMP Hunter cell lines were expanded from freezer stocks. Prior to testing, cells were seeded in a total volume of 20 μL into white walled 384-well microplates and incubated at 37° C. cAMP modulation was determined using the DiscoverX HitHunter cAMP XS+ assay. For Gs agonist determination, cells were incubated with sample to induce response. For Gi agonist determination, cells were incubated with sample in the presence of EC80 forskolin to induce response. For both conditions, media was aspirated from cells and replaced with 15 μL 2:1 HBSS/10 mM HEPES:cAMP XS+ Ab reagent. Intermediate dilution of sample stocks was performed to generate 4× sample in assay buffer (containing 4×EC80 forskolin in the case of antagonist determination). 5 μL of 4× sample was added to cells and incubated at 37° C. or room temperature (RT) for 30 or 60 min. Final assay vehicle concentration was 1%. For antagonist determination, cells were pre-incubated with sample followed by agonist challenge at the EC80 concentration. Media was aspirated from cells and replaced with 10 μL 1:1 HBSS/HEPES:cAMP XS+ Ab reagent. 5 μL of 4× compound was added to the cells and incubated at 37° C. or RT for 30 min. 5 μL of 4×EC80 agonist was added to the cells and incubated at 37° C. or RT for 30 or 60 min. For Gi coupled GPCRs, EC80 forskolin was included. […] Microplates were read following signal generation with a PerkinElmer Envision™ instrument for chemiluminescent signal detection. Compound activity was analyzed using CBIS data analysis suite (ChemInnovation, CA).

[7] = target: T1, KvLQT1/minK; test: Ion Channel KvLQT1/minK Opener; type: cell-based; conditions: for Emax: read-out: Max response
[8] = target: DRD1 (Homo sapiens, UniProt P21728); test: cAMP DRD1 Agonist; conditions: for Emax: read-out: Max response
Chain of DRD1 (P21728 whole entry): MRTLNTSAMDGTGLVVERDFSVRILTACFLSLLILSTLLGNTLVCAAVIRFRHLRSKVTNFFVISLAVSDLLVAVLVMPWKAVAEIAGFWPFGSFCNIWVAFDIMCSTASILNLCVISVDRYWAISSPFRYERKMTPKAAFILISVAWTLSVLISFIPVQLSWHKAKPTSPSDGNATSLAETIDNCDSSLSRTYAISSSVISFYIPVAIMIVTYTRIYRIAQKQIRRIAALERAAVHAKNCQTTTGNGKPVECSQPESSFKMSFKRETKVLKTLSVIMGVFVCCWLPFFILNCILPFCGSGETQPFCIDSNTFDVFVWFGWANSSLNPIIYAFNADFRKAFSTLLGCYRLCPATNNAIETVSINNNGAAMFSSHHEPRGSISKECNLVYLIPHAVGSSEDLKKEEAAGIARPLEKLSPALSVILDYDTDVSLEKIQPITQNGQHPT
Method: as §1, §2

[9] = tested on: 47 common off-targets; test: Safety47 panel in vitro pharmacological profiling (overall); conditions: for potential off-targets (number): 78 functional assays, 47 off-targets, up to 10 μM
Method: The following assays were performed: (1) GPCR cAMP modulation, (2) calcium mobilization, (3) nuclear hormone receptor assays, (4) KINOMEscan binding assays, (5) ion channel assays, (6) transporter assays and (7) enzymatic assays. Compounds were tested in a range of 10 concentrations, following a 3-fold serial dilution, starting from 10 μM. The assays were performed utilizing the PathHunter enzyme fragment complementation (EFC) technology, FLIPR®-based cellular screening assays, and KINOMEscan kinase binding assays.

[10] = target: GABAA (Homo sapiens, UniProt P14867+P18507+P47870); test: Ion Channel GABAA Opener; type: cell-based; conditions: read-out: Max response
Chain of GABAA (P14867 28-456): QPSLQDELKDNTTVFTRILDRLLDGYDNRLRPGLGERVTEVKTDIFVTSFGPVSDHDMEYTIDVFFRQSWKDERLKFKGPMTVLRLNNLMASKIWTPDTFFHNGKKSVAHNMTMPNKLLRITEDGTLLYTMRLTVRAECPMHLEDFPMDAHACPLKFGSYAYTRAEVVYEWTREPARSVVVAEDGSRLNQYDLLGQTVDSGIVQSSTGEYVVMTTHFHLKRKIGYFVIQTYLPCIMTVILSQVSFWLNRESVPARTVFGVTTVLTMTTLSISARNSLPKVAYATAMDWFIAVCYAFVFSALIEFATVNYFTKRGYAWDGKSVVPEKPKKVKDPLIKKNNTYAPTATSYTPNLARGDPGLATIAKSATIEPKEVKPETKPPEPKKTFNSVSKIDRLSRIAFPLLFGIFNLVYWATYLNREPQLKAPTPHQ
Chain of GABAA (P47870 26-512): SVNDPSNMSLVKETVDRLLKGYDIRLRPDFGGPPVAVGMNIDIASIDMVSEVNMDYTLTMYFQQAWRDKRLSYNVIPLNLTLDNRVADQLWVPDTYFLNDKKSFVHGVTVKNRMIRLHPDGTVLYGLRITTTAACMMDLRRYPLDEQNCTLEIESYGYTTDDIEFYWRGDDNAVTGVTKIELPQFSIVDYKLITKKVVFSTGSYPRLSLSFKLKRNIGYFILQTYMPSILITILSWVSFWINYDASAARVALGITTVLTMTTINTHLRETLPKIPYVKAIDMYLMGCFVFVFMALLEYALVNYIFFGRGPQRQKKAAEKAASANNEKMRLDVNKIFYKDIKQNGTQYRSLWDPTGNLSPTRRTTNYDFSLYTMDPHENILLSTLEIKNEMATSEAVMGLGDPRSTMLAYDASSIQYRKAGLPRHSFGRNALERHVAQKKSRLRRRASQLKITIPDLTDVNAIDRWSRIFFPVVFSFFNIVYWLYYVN
Chain of GABAA (P18507 40-475): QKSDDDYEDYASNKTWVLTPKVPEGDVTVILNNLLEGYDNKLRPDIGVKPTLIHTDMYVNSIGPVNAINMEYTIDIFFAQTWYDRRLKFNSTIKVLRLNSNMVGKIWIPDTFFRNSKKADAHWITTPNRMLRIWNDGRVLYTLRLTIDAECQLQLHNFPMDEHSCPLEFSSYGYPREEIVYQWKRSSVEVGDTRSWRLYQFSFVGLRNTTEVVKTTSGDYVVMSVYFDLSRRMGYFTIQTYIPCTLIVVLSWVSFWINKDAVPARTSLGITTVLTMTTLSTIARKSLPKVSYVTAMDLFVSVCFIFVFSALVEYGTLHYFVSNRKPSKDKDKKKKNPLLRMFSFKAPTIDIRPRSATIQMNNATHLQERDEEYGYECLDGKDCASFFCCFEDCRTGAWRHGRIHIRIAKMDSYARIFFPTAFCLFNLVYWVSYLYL

Row | SMILES | IC50 ([2]; Binding INSR Inhibitor) | EC50 ([3]; Calcium Flux CCKAR Agonist) | EC50 [4] | Emax [4] | IC50 [5] | Emax [5] | EC50 [6] | Emax [6] | EC50 [8] | Emax [8] | potential off-targets (number) [9] | Emax [10] | further results
1 | CC(C)(C)c1ccc(C#CC(O)c2ccccc2)cc1 (racemic) [Compound 3.3, rac-3-(4-(tert-butyl)phenyl)-1-phenylprop-2-yn-1-ol] | > 10 µM | > 10 µM | > 10 µM | 0% | 6.9 µM | 73.9% | > 10 µM | 9.8% | > 10 µM | 1.2% | 4 | 0% | IC50 [1]: > 10 µM; Emax [1]: 47.5%; Emax [2]: 10.3%; Emax [3]: 0.2%; EC50 [7]: > 10 µM; Emax [7]: 0%; IC50 ([9]; read-out: IC50 values at the potential off-targets, CHRM2, DRD2S, HTR1B, nAChR a4/b2): 4 to 8 µM
2 | Clc1cccc(C#Cc2n[nH]c3ncccc23)c1 [Compound 10.1, 3-((3-chlorophenyl)ethynyl)-1H-pyrazolo[3,4-b]pyridine] | > 10 µM | > 10 µM | > 10 µM | 3.4% | > 10 µM | 1.5% | > 10 µM | 20.1% | > 10 µM | 1.3% | none | 1.3% | Emax ([1]; Ion Channel KvLQT1/minK Blocker): 0%; IC50 ([1]; Ion Channel KvLQT1/minK Blocker, read-out: RC50, result type IC50): > 10 µM; Emax ([2]; Binding INSR Inhibitor): 0%; Emax ([3]; Calcium Flux CCKAR Agonist): 0.3%; Emax ([7]; Ion Channel KvLQT1/minK Opener): 2%; EC50 ([7]; Ion Channel KvLQT1/minK Opener, read-out: RC50, result type EC50): > 10 µM
